Bridge positions count the residues as written; N and C are the ends. Peptide text beside a SMILES is read from it.
Columns and labels:
[1] = Activity after incubation in serum (functional serum stability); assay type: in vitro ADME, pig
Experimental: To compare serum stability, a similar procedure was utilized, as described in Dong et al., with some modification. Briefly, a solution of 25% pig serum was made by diluting fresh pig serum with phosphate buffer saline (PBS). […] Suspension containing no peptide was considered the negative control. Experimental and control tubes were incubated for up to 7 or 24 h in 37 °C to allow for serum constituent interaction with the peptide. […] Experimental and control tubes were incubated for 2 h at 37 °C without shaking to allow for bactericidal action to occur. […] This experiment was carried out three independent times. […] On the other hand, SynPG-1 maintained strong antimicrobial activity even after 24 h of incubation in serum, indicated through a consistently low mean % growth, as compared to the controls seen in Figure 2b. […] All experiments were conducted three independent times. […] Data represent the mean ± SEM of three experiments. The asterisk represents p < 0.05 when compared with SynPG-1 by two-way ANOVA with a post hoc Tukey test.

IPEC-J2 cells = assay: In vitro cell migration, transwell assay; assay type: cell-based, porcine; conditions: transwell 8-micron, serum-free DMEM F-12, 5 to 20 µg/mL, 16 h, Hoechst 33342 count; SynPG-1 not significant at higher concentrations
Experimental: A cell line, established from intestinal porcine enterocytes, isolated from the jejunum of a neonatal unsuckled piglet (IPEC-J2 cells, DSMZ), was grown in monolayer culture in Dulbecco’s modified Eagle’s medium (high glucose), supplemented with 10% fetal bovine serum (FBS) from Invitrogen, 100 IU/mL penicillin, and 100 µg/mL streptomycin. Cultures were maintained in a 5% CO2 humidified atmosphere at 37 °C and passaged every 2–3 days, with detachment via the Trypsin-EDTA solution (Sigma).
To evaluate migration of IPEC-J2 cells, 8-micron pore-sized cell culture transwell inserts were used (Millipore Inc, Temecula, CA, USA). A total of 1 × 10^5 cells were plated in the upper inserts of the transwell and placed within 24-well plates, containing serum-free DMEM F-12 in the absence and presence of SynPG-1 or PG-1, at concentrations ranging from 5 µg/mL to 20 µg/mL. After incubation for 16 h, the cells were fixed with 4% (w/v) paraformaldehyde. […] Migration was quantified by cell enumeration through Hoechst 33342 staining of cell nuclei (Thermo Fisher Scientific, Mississauga, ON, Canada). The results are represented as the relative fold increase in migrated cells when compared to the baseline migration of IPEC-J2 cells in serum-free media after 16 h.

## CC[C@H](C)[C@H](NC(=O)[C@H](CCCCN)NC(=O)[C@H](CCCNC(=N)N)NC(=O)[C@H](CC(C)C)NC(=O)[C@H](CC(C)C)NC(=O)[C@H](CCCNC(=N)N)NC(=O)[C@H](CCCNC(=N)N)NC(=O)[C@H](CC(C)C)NC(=O)CN)C(=O)N[C@@H](CCCNC(=N)N)C(=O)NCC(=O)N[C@@H](CCCNC(=N)N)C(=O)N[C@@H](Cc1c[nH]c2ccccc12)C(=O)N[C@@H](CCCCN)C(=O)NCC(=O)NCC(=O)NCC(=O)N[C@@H](CCCNC(=N)N)C(=O)NCC(=O)NCC(=O)N[C@@H](CCCNC(=N)N)C(=O)N[C@@H](CC(C)C)C(=O)N[C@H]1CSSC[C@@H](C(=O)N[C@H](C(=O)NCC(=O)N[C@@H](CCCNC(=N)N)C(=O)O)C(C)C)NC(=O)[C@H](C(C)C)NC(=O)[C@@H]2CSSC[C@H](NC(=O)[C@H](Cc3ccc(O)cc3)NC1=O)C(=O)N[C@@H](CCCNC(=N)N)C(=O)N[C@@H](CCCNC(=N)N)C(=O)N[C@@H](CCCNC(=N)N)C(=O)N[C@@H](Cc1ccccc1)C(=O)N2 [SynPG-1, Syn-Protegrin-1] (H-GLRRLLRKIRGRWKGGGRGGRLCYCRRRFCVCVGR-OH; disulfide 23-32, 25-30; N-terminus and C-terminus assumed)
[1]
  Time of incubation in 25% serum for which antimicrobial activity is maintained: ≤ 24 h
[1]; 24 h versus 2 h of retained activity in 25% serum
  Increase in stability in 25% serum versus PG-1: 12 fold
IPEC-J2 cells
  Concentration at which cell migration increased significantly: 5 µg/mL

From paper PMC7407491, “The Addition of a Synthetic LPS-Targeting Domain Improves Serum Stability While Maintaining Antimicrobial, Antibiofilm, and Cell Stimulating Properties of an Antimicrobial Peptide” (Biomolecules, 2020)
